# US20240000899A1, “THERAPEUTIC USEFUL AGAINST ANTIMICROBIAL RESISTANT AGENTS” (priority 2022, published 2024)
# Legend:
# [1] = system: HepG2 (human liver) cell culture; test: Modified cytotoxicity protocol: residual anions of neutralized acid formulations; type: cell-based; settings: for Cytotoxicity of residual anions, conclusion in words: pH 1.5
# Method: Purpose: A modified cytotoxicity protocol was developed focusing on the cytotoxicity of the residual anions of the acid formulations. Twenty different acids formulations were tested, each in the range of 1.95 to 1.5 pH. Each formulation was diluted with distilled water to hydronium concentrations of 11.22 mM (pH 1.95), […] (pH 1.85), 19.95 mM (pH 1.70), 25.12 mM (pH 1.60), and 31.62 mM (pH 1.50). It was then titrated with NaOH to 7.4 pH and applied to HepG2 (human liver) cell culture in triplicate replicates.
# human coronavirus = settings: therapeutic concentration (~1.7 pH), in vitro suspension tests
# [2] = aerosolized, pH range of 1.5 to 2.0
# Description: Additionally, the low pH acid formulation needs to provide no or minimum deleterious effect to host tissues.
# [3] = system: Staphylococcus aureus ATCC 6538; test: Modified ASTM E2315 test of low pH therapeutic with AMPs, acid neutralized after one minute; type: cell-based
# Description: Since the reaction speed of the two different MOAs are different, a modified test protocol was developed, which is summarized below. • a. […] Heretofore, it has been believed that AMPs are unstable in low pH environments. Mixture of dry powder immediately prior to use is believed to address concerns regarding minimization of in vitro stability. • b. The prepared AMP solution was then mixed with the bacteria containing media. After one minute the acid solution was neutralized. This simulates the short antimicrobial period for the elevated proton concentration in vivo. The bacteria population was measured to determine efficacy after one minute. • c. The AMPs retained in the solution are not expected to stop their antimicrobial activity after acid neutralization, so a second bacteria population measurement was made after 24 hours. [table]
# [4] = 4.0% w/v concentration; cited from earlier work
molecule,measurement,setting,value
Isoacorbic + sulfuric [Example 17],% Viability @ pH 1.9,[1],89.3%
O=S(=O)(O)O [sulfuric acid],Time to inactivating and/or reducing concentration of human coronavirus,human coronavirus,≤ 1 min
same,Harm to host respiratory tissues in vivo,[2],not harmful
same,Cytotoxicity,mouse fibroblast cells,no cytotoxicity
Hydroxyacetic +. Sulfuric [Example 8],% Viability @ pH 1.9,[1],72.7%
Hydroxyacetic + HCl [Example 15],% Viability @ pH 1.9,[1],117%
Isoascorbic + HCl [Example 18],"Cytotoxicity of residual anions, conclusion in words",[1],least toxic
same,% Viability @ pH 1.9,[1],104%
"LL-37 [Example 38, reference compound]",1-min Efficacy (log),"[3]; bacteria population after one minute, then acid neutralized, no soiling, single-replicant",4.15 log
same,"Efficacy on S. aureus, conclusion in words",[3]; comparison of Table 3 examples,highly effective
same,24-hour Efficacy (log),"[3]; second bacteria population measurement after 24 hours, acid neutralized after one minute",>6.45 log
Sulfuric [Example 3],"Cytotoxicity of residual anions, conclusion in words",[1],least toxic
same,% Viability @ pH 1.9,[1],140%
OB(O)O [Boric acid],pH,[4],4.8-5.0
